# According to patent US20230278972A1, “SUBSTITUTED HALOALKYL SULFONANILIDE HERBICIDES” (FMC Corporation, priority 2020, published 2023):
# Key:
# Format in all cases: in vivo
# [1] = test system: Foxtail, Giant (giant foxtail, Setaria faberi); assay: Test A1 preemergence, Foxtail, Giant
# How it was run: (§1)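 Seeds were first planted into a blend of loam soil and sand and given a preemergence directed soil spray. In parallel, pots of the same soil were sown for postemergence application once plants reached 2 to 10 cm and the one- to two-leaf stage. Both used surfactant-containing non-phytotoxic solvent formulations.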
# [2] = test system: blackgrass (Alopecurus myosuroides); assay: Test A1 postemergence, blackgrass; details: Postemergence, 0 to 100 scale (0 no effect, 100 complete control)
# How it was run: (§2)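 Plants grown in pots of loam/sand mix; preemergence = soil-directed spray on seeded pots, postemergence = spray at 1–2 leaves, height 2–10 cm; test chemicals formulated in non-phytotoxic solvent with surfactant.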
# [3] = test system: Oat, Wild (wild oat, Avena fatua); assay: Test A1 postemergence, Oat, Wild; details: Postemergence
# How it was run: as §1
# [4] = test system: galium (catchweed bedstraw, Galium aparine); assay: Test A1 postemergence, galium; details: Postemergence
# How it was run: as §2
# soybean (Glycine max) [5] = assay: Test A1 postemergence, soybean; details: Postemergence
# How it was run: as §2
# [6] = test system: wheat (Triticum aestivum); assay: Test A1 postemergence, wheat; details: Postemergence
# How it was run: as §2
# [7] = test system: Foxtail, Giant (giant foxtail, Setaria faberi); assay: Test A1 postemergence, Foxtail, Giant; details: Postemergence
# How it was run: as §2
# [8] = test system: Ryegrass, Italian (Italian ryegrass, Lolium multiflorum); assay: Test A1 preemergence, Ryegrass, Italian
# How it was run: as §1
# corn (Zea mays) [9] = assay: Test A1 postemergence, corn; details: Postemergence
# How it was run: as §1
# soybean (Glycine max) [10] = assay: Test A1 preemergence, soybean
# How it was run: as §1
# [11] = test system: goosegrass (Eleusine indica); assay: Test A1 preemergence, goosegrass
# How it was run: as §1
# rice (Oryza sativa) = assay: Test B1 flooded paddy test, rice; details: 250 g ai/ha, Flood, applied to paddy water, 2-leaf stage, visually evaluated after 10 to 14 days
# Description: (§3) A dash (-) response means no test result.
# kochia (Bassia scoparia) [12] = assay: Test A1 preemergence, kochia
# How it was run: as §1
# [13] = test system: wheat (Triticum aestivum); assay: Test A1 preemergence, wheat
# How it was run: as §1
# [14] = test system: goosegrass (Eleusine indica); assay: Test A1 postemergence, goosegrass; details: Postemergence
# How it was run: as §2
# [15] = test system: Ryegrass, Italian (Italian ryegrass, Lolium multiflorum); assay: Test A1 postemergence, Ryegrass, Italian; details: Postemergence
# How it was run: as §2
# [16] = test system: Pigweed, Palmer (palmer amaranth, palmer pigweed, Amaranthus palmeri); assay: Test A1 postemergence, Pigweed, Palmer; details: Postemergence
# How it was run: as §1
# [17] = test system: Pigweed, Palmer (palmer amaranth, palmer pigweed, Amaranthus palmeri); assay: Test A1 preemergence, Pigweed, Palmer
# How it was run: as §1
# [18] = test system: ragweed (common ragweed, Ambrosia artemisiifolia); assay: Test A1 preemergence, ragweed
# How it was run: as §1
# [19] = test system: ragweed (common ragweed, Ambrosia artemisiifolia); assay: Test A1 postemergence, ragweed; details: Postemergence
# How it was run: as §1
# [20] = test system: Oat, Wild (wild oat, Avena fatua); assay: Test A1 preemergence, Oat, Wild
# How it was run: as §1
# kochia (Bassia scoparia) [21] = assay: Test A1 postemergence, kochia; details: Postemergence
# How it was run: as §2
# [22] = test system: blackgrass (Alopecurus myosuroides); assay: Test A1 preemergence, blackgrass
# How it was run: as §1
# [23] = test system: barnyardgrass (Echinochloa crus-galli); assay: Test B1 flooded paddy test, barnyardgrass; details: 250 g ai/ha, Flood, applied to paddy water, 2-leaf stage, visually evaluated after 10 to 14 days
# Description: as §3
# [24] = test system: ducksalad (Heteranthera limosa); assay: Test B1 flooded paddy test, ducksalad; details: 250 g ai/ha, Flood, applied to paddy water, 2-leaf stage, visually evaluated after 10 to 14 days
# Description: as §3
# [25] = test system: horseweed (Erigeron canadensis); assay: Test A1 postemergence, horseweed; details: Postemergence
# How it was run: as §2
# corn (Zea mays) [26] = assay: Test A1 preemergence, corn
# How it was run: as §1
# [27] = 31 g ai/ha, 0 to 100 scale (0 no effect, 100 complete control)
# [28] = 125 g ai/ha, 0 to 100 scale, 0 no effect, 100 complete control
# [29] = 31 g ai/ha, 0 to 100 scale (0 no effect, 100 complete control), 10 days
compound,measurement,setting,value
Cc1cc(Br)c(C2=NOC3CCCC23)cc1NS(=O)(=O)C(F)(F)F (stereo not drawn) [Compound 302],"Plant response rating, Foxtail, Giant",[1]; [27],20
same,"Plant response rating, Foxtail, Giant",[1]; [28],80
same,"Plant response rating, Blackgrass","[2]; 31 g ai/ha, 10 days",0
same,"Plant response rating, Blackgrass",[2]; 125 g ai/ha,0
same,"Plant response rating, Oat, Wild",[3]; [29],0
same,"Plant response rating, Oat, Wild","[3]; 125 g ai/ha, 0 to 100 scale",0
same,"Plant response rating, Galium",[4]; [29],0
same,"Plant response rating, Galium","[4]; 125 g ai/ha, 0 to 100 scale",0
same,"Plant response rating, Soybean",soybean (Glycine max) [5]; [29],20
same,"Plant response rating, Soybean","soybean (Glycine max) [5]; 125 g ai/ha, 0 to 100 scale",40
same,"Plant response rating, Wheat",[6]; [29],0
same,"Plant response rating, Wheat","[6]; 125 g ai/ha, 0 to 100 scale",10
same,"Plant response rating, Foxtail, Giant",[7]; [29],0
same,"Plant response rating, Foxtail, Giant","[7]; 125 g ai/ha, 0 to 100 scale",0
same,"Plant response rating, Ryegrass, Italian",[8]; [27],50
same,"Plant response rating, Ryegrass, Italian",[8]; [28],90
same,"Plant response rating, Corn",corn (Zea mays) [9]; [29],0
same,"Plant response rating, Corn","corn (Zea mays) [9]; 125 g ai/ha, 0 to 100 scale",0
same,"Plant response rating, Soybean",soybean (Glycine max) [10]; [27],0
same,"Plant response rating, Soybean",soybean (Glycine max) [10]; [28],20
same,"Plant response rating, Goosegrass",[11]; [27],0
same,"Plant response rating, Goosegrass",[11]; [28],90
same,"Plant response rating, Rice (0 to 100 scale, 0 is no effect, 100 is complete control)",rice (Oryza sativa),0
same,"Plant response rating, Kochia",kochia (Bassia scoparia) [12]; [27],30
same,"Plant response rating, Kochia",kochia (Bassia scoparia) [12]; [28],80
same,"Plant response rating, Wheat",[13]; [27],0
same,"Plant response rating, Wheat",[13]; [28],20
same,"Plant response rating, Goosegrass",[14]; [29],0
same,"Plant response rating, Goosegrass","[14]; 125 g ai/ha, 0 to 100 scale",10
same,"Plant response rating, Ryegrass, Italian",[15]; [29],0
same,"Plant response rating, Ryegrass, Italian","[15]; 125 g ai/ha, 0 to 100 scale",0
same,"Plant response rating, Pigweed, Palmer",[16]; [29],10
same,"Plant response rating, Pigweed, Palmer","[16]; 125 g ai/ha, 0 to 100 scale",40
same,"Plant response rating, Pigweed, Palmer",[17]; [27],20
same,"Plant response rating, Pigweed, Palmer",[17]; [28],50
same,"Plant response rating, Ragweed",[18]; [27],0
same,"Plant response rating, Ragweed",[18]; [28],30
same,"Plant response rating, Ragweed",[19]; [29],30
same,"Plant response rating, Ragweed","[19]; 125 g ai/ha, 0 to 100 scale",70
same,"Plant response rating, Oat, Wild",[20]; [27],0
same,"Plant response rating, Oat, Wild",[20]; [28],20
same,"Plant response rating, Kochia",kochia (Bassia scoparia) [21]; [29],10
same,"Plant response rating, Kochia","kochia (Bassia scoparia) [21]; 125 g ai/ha, 0 to 100 scale",50
same,"Plant response rating, Blackgrass",[22]; [27],0
same,"Plant response rating, Blackgrass",[22]; [28],0
same,"Plant response rating, Barnyardgrass (0 to 100 scale, 0 is no effect, 100 is complete control)",[23],0
same,"Plant response rating, Ducksalad (0 to 100 scale, 0 is no effect, 100 is complete control)",[24],70
same,"Plant response rating, Horseweed",[25]; [29],10
same,"Plant response rating, Horseweed","[25]; 125 g ai/ha, 0 to 100 scale",40
same,"Plant response rating, Corn",corn (Zea mays) [26]; [27],0
same,"Plant response rating, Corn",corn (Zea mays) [26]; [28],0
